Measurements reported in paper PMC9505425, “Targeting of the Mitochondrial TET1 Protein by Pyrrolo[3,2-b]pyrrole Chelators” (International Journal of Molecular Sciences, 2022).
Where “and” joins values, the source holds several entries; their conditions need not be identical. Equal values may be shown once.

Experiments:
BT-20 cells = assay: MTT cytotoxicity assay, BT-20; assay type: cell-based, human
In short: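 BT-20 human breast cells seeded 24 h, then treated 48 h with compound at 0.1–20 μM (DMSO below 1%). Viability by MTT (2 h, formazan in DMSO, A570) against untreated cells as 100%; IC50 from four replicates per test, three independent repeats.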

HF-P4 cells = assay: MTT cytotoxicity assay, HF-P4; assay type: cell-based, human; conditions: 48 h; for Cell viability %: repeats
In short: (§1)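 Cells seeded at 1.0 × 10^5 per well, grown 24 h, then exposed 48 h to compounds at 0.1–20 μM (DMSO ≤1%). MTT added for 2 h, formazan dissolved in DMSO, absorbance read at 570 nm. IC50 calculated relative to untreated cells (100%).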

[1] = MTT cytotoxicity assay, HF-P4; assay type: cell-based, human; conditions: human, HF-P4 normal human dermal fibroblasts, repeats, read-out: Cell viability %
In short: as §1

Caov-3 cells = assay: MTT cytotoxicity assay, Caov-3; assay type: cell-based, human
In short: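 Caov-3 ovarian adenocarcinoma cells, grown for 24 h after plating, were exposed for 48 h to compound at 0.1–20 μM with at most 1% DMSO. Viability was measured by MTT reduction (2 h, A570) relative to untreated cells. IC50 was the concentration inhibiting 50% of cell growth.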

Compound: Cc1ccc(-n2c(-c3ccc(C(=O)N/N=C/c4ccc(O)cc4O)cc3)cc3c2cc(-c2ccc(C(=O)N/N=C/c4ccc(O)cc4O)cc2)n3-c2ccc(C)cc2)cc1 [Compound 4]
- Cell viability % (BT-20 cells; BT-20, 100 nM, 48 h, repeats, 0.1 µM): 89.05% and 76.97% and 98.11%
- Cell viability % (BT-20 cells; BT-20, 500 nM, 48 h, repeats, 0.5 µM): 90.8088% and 82.57%
- Cell viability % (BT-20 cells; BT-20, 750 nM, 48 h, repeats, 0.75 µM): 103.1798% and 88.69% and 109.7163%
- Cell viability % (BT-20 cells; BT-20, 1 uM, 48 h, repeats, 1 µM): 100.5483% and 88.51%
- Cell viability % (BT-20 cells; BT-20, 2.5 uM, 48 h, repeats, 2.5 µM): 82.74% and 106.2024% and 110.5893%
- Cell viability % (BT-20 cells; BT-20, 5 uM, 48 h, repeats, 5 µM): 77.52% and 61.62%
- Cell viability % (BT-20 cells; BT-20, 7.5 uM, 48 h, repeats, 7.5 µM): 44.3% and 44.18%
- Cell viability % (BT-20 cells; BT-20, 10 uM, 48 h, repeats, 10 µM): 18.92% and 21.27%
- Cell viability % (BT-20 cells; BT-20, 15 uM, 48 h, repeats, 15 µM): 8.454% and 10.83%
- Cell viability % (BT-20 cells; BT-20, 20 uM, 48 h, repeats, 20 µM): 9.864% and 12.92%
- viability at 0.5 µM (BT-20 cells; Homo sapiens, BT-20, 48 h, BT-20, 500 nM, repeats, read-out: Cell viability %): 77.8%
- viability at 1 µM (BT-20 cells; Homo sapiens, BT-20, 48 h, BT-20, 1 uM, repeats, read-out: Cell viability %): 96.3%
- viability at 5 µM (BT-20 cells; Homo sapiens, BT-20, 48 h, BT-20, 5 uM, repeats, read-out: Cell viability %): 73.5%
- viability at 7.5 µM (BT-20 cells; Homo sapiens, BT-20, 48 h, BT-20, 7.5 uM, repeats, read-out: Cell viability %): 37.5%
- viability at 10 µM (BT-20 cells; Homo sapiens, BT-20, 48 h, BT-20, 10 uM, repeats, read-out: Cell viability %): 20.1%
- viability at 15 µM (BT-20 cells; Homo sapiens, BT-20, 48 h, BT-20, 15 uM, repeats, read-out: Cell viability %): 8.06%
- viability at 20 µM (BT-20 cells; Homo sapiens, BT-20, 48 h, BT-20, 20 uM, repeats, read-out: Cell viability %): 8.37%
- IC50 (BT-20 cells; Homo sapiens, BT-20, MTT, 48 h): 6.22 µM
- Cell viability % (HF-P4 cells; HF-P4, 100 nM, 0.1 µM): 100.6236% and 114.7117%
- Cell viability % (HF-P4 cells; HF-P4, 500 nM, 0.5 µM): 87.47% and 94.87%
- Cell viability % (HF-P4 cells; HF-P4, 750 nM, 0.75 µM): 85.1% and 92.38%
- Cell viability % (HF-P4 cells; HF-P4, 1 uM, 1 µM): 81.67% and 86.71%
- Cell viability % (HF-P4 cells; HF-P4, 2.5 uM, 2.5 µM): 86.63% and 76.23%
- Cell viability % (HF-P4 cells; HF-P4, 5 uM, 5 µM): 73.34% and 61.32%
- Cell viability % (HF-P4 cells; HF-P4, 7.5 uM, 7.5 µM): 70.27% and 58.24%
- Cell viability % (HF-P4 cells; HF-P4, 10 uM, 10 µM): 62.49% and 65.68%
- Cell viability % (HF-P4 cells; HF-P4, 15 uM, 15 µM): 53.94% and 54.86%
- Cell viability % (HF-P4 cells; HF-P4, 20 uM, 20 µM): 38.68% and 44.63%
- IC50 (HF-P4 cells; Homo sapiens, MTT): 13.1 µM
- viability at 48 h, 0.1 µM ([1]; HF-P4, 100 nM): 102%
- viability at 48 h, 0.5 µM ([1]; HF-P4, 500 nM): 94.9%
- viability at 48 h, 0.75 µM ([1]; HF-P4, 750 nM): 84.8%
- viability at 48 h, 1 µM ([1]; HF-P4, 1 uM): 86%
- viability at 48 h, 2.5 µM ([1]; HF-P4, 2.5 uM): 74.5%
- viability at 48 h, 5 µM ([1]; HF-P4, 5 uM): 74.9%
- viability at 48 h, 7.5 µM ([1]; HF-P4, 7.5 uM): 66.9%
- viability at 48 h, 10 µM ([1]; HF-P4, 10 uM): 59.9%
- viability at 48 h, 15 µM ([1]; HF-P4, 15 uM): 45.1%
- viability at 48 h, 20 µM ([1]; HF-P4, 20 uM): 36.4%
- Cell viability % (Caov-3 cells; Caov-3, 100 nM, 48 h, repeats, 0.1 µM): 84.95% and 82.17%
- Cell viability % (Caov-3 cells; Caov-3, 500 nM, 48 h, repeats, 0.5 µM): 102.391% and 108.5681%
- Cell viability % (Caov-3 cells; Caov-3, 750 nM, 48 h, repeats, 0.75 µM): 102.8833% and 94.08%
- Cell viability % (Caov-3 cells; Caov-3, 1 uM, 48 h, repeats, 1 µM): 98.73% and 92.87%
- Cell viability % (Caov-3 cells; Caov-3, 2.5 uM, 48 h, repeats, 2.5 µM): 74.65% and 110.1266% and 69.7%
- Cell viability % (Caov-3 cells; Caov-3, 5 uM, 48 h, repeats, 5 µM): 50.71% and 80.94% and 55.26%
- Cell viability % (Caov-3 cells; Caov-3, 7.5 uM, 48 h, repeats, 7.5 µM): 53.66% and 54.17%
- Cell viability % (Caov-3 cells; Caov-3, 10 uM, 48 h, repeats, 10 µM): 41.07% and 42.6107%
- Cell viability % (Caov-3 cells; Caov-3, 15 uM, 48 h, repeats, 15 µM): 17.58% and 17.6%
- Cell viability % (Caov-3 cells; Caov-3, 20 uM, 48 h, repeats, 20 µM): 14.91% and 14.49%
- viability at 0.1 µM (Caov-3 cells; Homo sapiens, Caov-3, 48 h, Caov-3, 100 nM, repeats, read-out: Cell viability %): 68.6%
- viability at 0.5 µM (Caov-3 cells; Homo sapiens, Caov-3, 48 h, Caov-3, 500 nM, repeats, read-out: Cell viability %): 104%
- viability at 0.75 µM (Caov-3 cells; Homo sapiens, Caov-3, 48 h, Caov-3, 750 nM, repeats, read-out: Cell viability %): 92.8%
- viability at 1 µM (Caov-3 cells; Homo sapiens, Caov-3, 48 h, Caov-3, 1 uM, repeats, read-out: Cell viability %): 101%
- viability at 7.5 µM (Caov-3 cells; Homo sapiens, Caov-3, 48 h, Caov-3, 7.5 uM, repeats, read-out: Cell viability %): 53.1%
- viability at 10 µM (Caov-3 cells; Homo sapiens, Caov-3, 48 h, Caov-3, 10 uM, repeats, read-out: Cell viability %): 42.9%
- viability at 15 µM (Caov-3 cells; Homo sapiens, Caov-3, 48 h, Caov-3, 15 uM, repeats, read-out: Cell viability %): 19.5%
- viability at 20 µM (Caov-3 cells; Homo sapiens, Caov-3, 48 h, Caov-3, 20 uM, repeats, read-out: Cell viability %): 14.3%
- IC50 (Caov-3 cells; Homo sapiens, Caov-3, MTT, 48 h): 9.13 µM
- melting point: 328 to 329 °C
